Assay results taken from PubChem BioAssay (NCI).
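Results reflect a 48-hour exposure of cells in 96-well plates to compound at five concentrations. GI50: concentration for 50% inhibition of growth. Definition used: TGI = concentration required for complete inhibition of growth.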 Calls of active or inactive are those of the source. Cut-off read from the data, not from the text of the source: active = GI50 below about 0.43 µM; inactive = the rest.

Key:
Assay in all cases: NCI-60 cell line screen, 48 h
786-0 renal = tested on: 786-0 renal
A498 renal = tested on: A498 renal
A549 NSCLC = tested on: A549 NSCLC
ACHN renal = tested on: ACHN renal
BT-549 breast = tested on: BT-549 breast
CAKI-1 renal = tested on: CAKI-1 renal
CCRF-CEM leukemia = tested on: CCRF-CEM leukemia
COLO 205 colon = tested on: COLO 205 colon
DU-145 prostate = tested on: DU-145 prostate
EKVX NSCLC = tested on: EKVX NSCLC
HCC-2998 colon = tested on: HCC-2998 colon
HCT-116 colon = tested on: HCT-116 colon
HCT-15 colon = tested on: HCT-15 colon
HL-60(TB) leukemia = tested on: HL-60(TB) leukemia
HOP-62 NSCLC = tested on: HOP-62 NSCLC
HOP-92 NSCLC = tested on: HOP-92 NSCLC
HS 578T breast = tested on: HS 578T breast
HT29 colon = tested on: HT29 colon
IGROV1 ovarian = tested on: IGROV1 ovarian
K-562 leukemia = tested on: K-562 leukemia
KM12 colon = tested on: KM12 colon
LOX IMVI melanoma = tested on: LOX IMVI melanoma
M14 melanoma = tested on: M14 melanoma
MALME-3M melanoma = tested on: MALME-3M melanoma
MCF7 breast = tested on: MCF7 breast
MDA-MB-231 breast = tested on: MDA-MB-231 breast
MDA-MB-435 = tested on: MDA-MB-435
MDA-N = tested on: MDA-N
MOLT-4 leukemia = tested on: MOLT-4 leukemia
NCI-H226 lung = tested on: NCI-H226 lung
NCI-H23 lung = tested on: NCI-H23 lung
NCI-H460 lung = tested on: NCI-H460 lung
NCI-H522 lung = tested on: NCI-H522 lung
NCI/ADR-RES ovarian = tested on: NCI/ADR-RES ovarian
OVCAR-3 ovarian = tested on: OVCAR-3 ovarian
OVCAR-4 ovarian = tested on: OVCAR-4 ovarian
OVCAR-5 ovarian = tested on: OVCAR-5 ovarian
OVCAR-8 ovarian = tested on: OVCAR-8 ovarian
PC-3 prostate = tested on: PC-3 prostate
RPMI-8226 leukemia = tested on: RPMI-8226 leukemia
RXF 393 renal = tested on: RXF 393 renal
SF-268 CNS = tested on: SF-268 CNS
SF-295 CNS = tested on: SF-295 CNS
SF-539 CNS = tested on: SF-539 CNS
SK-MEL-2 melanoma = tested on: SK-MEL-2 melanoma
SK-MEL-28 melanoma = tested on: SK-MEL-28 melanoma
SK-MEL-5 melanoma = tested on: SK-MEL-5 melanoma
SK-OV-3 ovarian = tested on: SK-OV-3 ovarian
SN12C renal = tested on: SN12C renal
SNB-19 CNS = tested on: SNB-19 CNS
SNB-75 CNS = tested on: SNB-75 CNS
SR leukemia = tested on: SR leukemia
SW-620 colon = tested on: SW-620 colon
T-47D breast = tested on: T-47D breast
TK-10 renal = tested on: TK-10 renal
U251 CNS = tested on: U251 CNS
UACC-257 melanoma = tested on: UACC-257 melanoma
UACC-62 melanoma = tested on: UACC-62 melanoma
UO-31 renal = tested on: UO-31 renal
DLD-1 colon = tested on: DLD-1 colon
DMS 273 small cell lung = tested on: DMS 273 small cell lung
HOP-18 NSCLC = tested on: HOP-18 NSCLC
KM20L2 colon = tested on: KM20L2 colon
LXFL 529 NSCLC = tested on: LXFL 529 NSCLC
DMS 114 small cell lung = tested on: DMS 114 small cell lung
M19-MEL melanoma = tested on: M19-MEL melanoma

C#CCN(Cc1cc2c(=O)[nH]c(C)nc2cc1C)c1ccc(C(=O)N[C@@H](CCc2nn[nH]n2)C(=O)O)c(F)c1
inactive: outcome (786-0 renal) | outcome (A498 renal) | outcome (A549 NSCLC) | outcome (ACHN renal) | outcome (BT-549 breast) | outcome (CAKI-1 renal) | outcome (CCRF-CEM leukemia) | outcome (COLO 205 colon) | outcome (DU-145 prostate) | outcome (EKVX NSCLC) | outcome (HCC-2998 colon) | outcome (HCT-116 colon) | outcome (HCT-15 colon) | outcome (HL-60(TB) leukemia) | outcome (HOP-62 NSCLC) | outcome (HOP-92 NSCLC) | outcome (HS 578T breast) | outcome (HT29 colon) | outcome (IGROV1 ovarian) | outcome (K-562 leukemia) | outcome (KM12 colon) | outcome (LOX IMVI melanoma) | outcome (M14 melanoma) | outcome (MALME-3M melanoma) | outcome (MCF7 breast) | outcome (MDA-MB-231 breast) | outcome (MDA-MB-435) | outcome (MDA-N) | outcome (MOLT-4 leukemia) | outcome (NCI-H226 lung) | outcome (NCI-H23 lung) | outcome (NCI-H460 lung) | outcome (NCI-H522 lung) | outcome (NCI/ADR-RES ovarian) | outcome (OVCAR-3 ovarian) | outcome (OVCAR-4 ovarian) | outcome (OVCAR-5 ovarian) | outcome (OVCAR-8 ovarian) | outcome (PC-3 prostate) | outcome (RPMI-8226 leukemia) | outcome (RXF 393 renal) | outcome (SF-268 CNS) | outcome (SF-295 CNS) | outcome (SF-539 CNS) | outcome (SK-MEL-2 melanoma) | outcome (SK-MEL-28 melanoma) | outcome (SK-MEL-5 melanoma) | outcome (SK-OV-3 ovarian) | outcome (SN12C renal) | outcome (SNB-19 CNS) | outcome (SNB-75 CNS) | outcome (SR leukemia) | outcome (SW-620 colon) | outcome (T-47D breast) | outcome (TK-10 renal) | outcome (U251 CNS) | outcome (UACC-257 melanoma) | outcome (UACC-62 melanoma) | outcome (UO-31 renal)

C1C[OH+]CCNCC[OH+]CC[OH+]CCN1.O.[Cl-].[Pt+4]
inactive: GI50 (786-0 renal) > 100 µM | GI50 (A498 renal) > 100 µM | GI50 (A549 NSCLC) > 100 µM | GI50 (ACHN renal) > 100 µM | GI50 (CAKI-1 renal) > 100 µM | GI50 (CCRF-CEM leukemia) > 100 µM | GI50 (COLO 205 colon) > 100 µM | GI50 (DLD-1 colon) > 100 µM | GI50 (DMS 273 small cell lung) > 100 µM | GI50 (HCC-2998 colon) > 100 µM | GI50 (HCT-116 colon) > 100 µM | GI50 (HCT-15 colon) > 100 µM | GI50 (HL-60(TB) leukemia) > 100 µM | GI50 (HOP-18 NSCLC) > 100 µM | GI50 (HOP-62 NSCLC) > 100 µM | GI50 (HOP-92 NSCLC) > 10 µM | GI50 (HT29 colon) > 100 µM | GI50 (IGROV1 ovarian) > 100 µM | GI50 (K-562 leukemia) > 100 µM | GI50 (KM12 colon) > 100 µM | GI50 (KM20L2 colon) > 100 µM | GI50 (LOX IMVI melanoma) > 100 µM | GI50 (LXFL 529 NSCLC) > 100 µM | GI50 (M14 melanoma) > 10 µM | GI50 (MALME-3M melanoma) > 100 µM | GI50 (MOLT-4 leukemia) > 100 µM | GI50 (NCI-H226 lung) > 100 µM | GI50 (NCI-H460 lung) > 100 µM | GI50 (OVCAR-3 ovarian) > 100 µM | GI50 (OVCAR-4 ovarian) > 100 µM | GI50 (OVCAR-8 ovarian) > 100 µM | GI50 (RPMI-8226 leukemia) > 100 µM | GI50 (SF-268 CNS) > 100 µM | GI50 (SF-295 CNS) > 100 µM | GI50 (SF-539 CNS) > 100 µM | GI50 (SK-MEL-2 melanoma) > 100 µM | GI50 (SK-MEL-28 melanoma) > 100 µM | GI50 (SK-MEL-5 melanoma) > 100 µM | GI50 (SK-OV-3 ovarian) > 100 µM | GI50 (SN12C renal) > 100 µM | GI50 (SNB-19 CNS) > 100 µM | GI50 (SNB-75 CNS) > 100 µM | GI50 (SW-620 colon) > 100 µM | GI50 (TK-10 renal) > 100 µM | GI50 (U251 CNS) > 100 µM | GI50 (UACC-257 melanoma) > 100 µM | GI50 (UACC-62 melanoma) > 100 µM | GI50 (UO-31 renal) > 100 µM
> 10 µM: TGI (HOP-92 NSCLC) | TGI (M14 melanoma)
> 100 µM: TGI (786-0 renal) | TGI (A498 renal) | TGI (A549 NSCLC) | TGI (ACHN renal) | TGI (CAKI-1 renal) | TGI (CCRF-CEM leukemia) | TGI (COLO 205 colon) | TGI (DLD-1 colon) | TGI (DMS 273 small cell lung) | TGI (HCC-2998 colon) | TGI (HCT-116 colon) | TGI (HCT-15 colon) | TGI (HL-60(TB) leukemia) | TGI (HOP-18 NSCLC) | TGI (HOP-62 NSCLC) | TGI (HT29 colon) | TGI (IGROV1 ovarian) | TGI (K-562 leukemia) | TGI (KM12 colon) | TGI (KM20L2 colon) | TGI (LOX IMVI melanoma) | TGI (LXFL 529 NSCLC) | TGI (MALME-3M melanoma) | TGI (MOLT-4 leukemia) | TGI (NCI-H226 lung) | TGI (NCI-H460 lung) | TGI (OVCAR-3 ovarian) | TGI (OVCAR-4 ovarian) | TGI (OVCAR-8 ovarian) | TGI (RPMI-8226 leukemia) | TGI (SF-268 CNS) | TGI (SF-295 CNS) | TGI (SF-539 CNS) | TGI (SK-MEL-2 melanoma) | TGI (SK-MEL-28 melanoma) | TGI (SK-MEL-5 melanoma) | TGI (SK-OV-3 ovarian) | TGI (SN12C renal) | TGI (SNB-19 CNS) | TGI (SNB-75 CNS) | TGI (SW-620 colon) | TGI (TK-10 renal) | TGI (U251 CNS) | TGI (UACC-257 melanoma) | TGI (UACC-62 melanoma) | TGI (UO-31 renal)

N#CC1(C#N)C(c2ccc(C3C(C#N)(C#N)C3(C#N)C#N)cc2)C1(C#N)C#N
> 100 µM: TGI (786-0 renal) | TGI (A549 NSCLC) | TGI (ACHN renal) | TGI (CAKI-1 renal) | TGI (CCRF-CEM leukemia) | TGI (COLO 205 colon) | TGI (DLD-1 colon) | TGI (DMS 114 small cell lung) | TGI (DMS 273 small cell lung) | TGI (EKVX NSCLC) | TGI (HCC-2998 colon) | TGI (HCT-15 colon) | TGI (HL-60(TB) leukemia) | TGI (HOP-18 NSCLC) | TGI (HOP-62 NSCLC) | TGI (HOP-92 NSCLC) | TGI (HT29 colon) | TGI (IGROV1 ovarian) | TGI (K-562 leukemia) | TGI (KM12 colon) | TGI (KM20L2 colon) | TGI (LOX IMVI melanoma) | TGI (LXFL 529 NSCLC) | TGI (M14 melanoma) | TGI (M19-MEL melanoma) | TGI (MALME-3M melanoma) | TGI (MOLT-4 leukemia) | TGI (NCI-H23 lung) | TGI (NCI-H460 lung) | TGI (NCI-H522 lung) | TGI (OVCAR-3 ovarian) | TGI (OVCAR-4 ovarian) | TGI (OVCAR-5 ovarian) | TGI (OVCAR-8 ovarian) | TGI (RPMI-8226 leukemia) | TGI (RXF 393 renal) | TGI (SF-268 CNS) | TGI (SF-295 CNS) | TGI (SF-539 CNS) | TGI (SK-MEL-2 melanoma) | TGI (SK-MEL-28 melanoma) | TGI (SK-MEL-5 melanoma) | TGI (SK-OV-3 ovarian) | TGI (SN12C renal) | TGI (SNB-19 CNS) | TGI (SNB-75 CNS) | TGI (SW-620 colon) | TGI (TK-10 renal) | TGI (U251 CNS) | TGI (UACC-257 melanoma) | TGI (UACC-62 melanoma) | TGI (UO-31 renal)
